This note sets out measurements from US9688678B2, “Oxindole compounds carrying a nitrogen-bound spiro substituent and use thereof for treating vasopressin-related diseases” (AbbVie Deutschland GmbH & Co. KG, priority 2014, dated 2017).

The target in assay [1] is human vasopressin V1b receptor (Homo sapiens (Human), UniProt P47901). Put plainly: Vasopressin V1b receptor binding assay. The note with it: membranes from CHO-K1 cells, displacement of 3H-AVP. On the procedure:
The test substances were dissolved in a concentration of 5 mM in 100% DMSO and further diluted to 5×10^−4 M to 5×10^−9 M. These serial DMSO predilutions were diluted 1:10 with assay buffer. The substance concentration was further diluted 1:5 in the assay mixture resulting in 2% DMSO in the mixture. All dilutions were performed in a Biomek NX automation workstation (Beckman)
The membrane pellet was again homogenized and centrifuged as described and subsequently taken up in 50 mM Tris-HCl, pH 7.4, homogenized and stored in aliquots frozen in liquid nitrogen at −190° C.
(§1) The incubation buffer was: 50 mM Tris, 10 mM MgCl2, 0.1% BSA, pH 7.4.
All determinations were carried out as duplicate determinations. […] The liquid scintillation measurement took place in a Microbeta TriLux 12 (Wallac). Analysis:
(§2) The binding parameters were calculated by nonlinear regression in SAS.
Background: Displacement assays read how much labelled ligand stays bound in the presence of the test substance.

The target in assay [2] is human vasopressin V1a receptor (Homo sapiens (Human), UniProt P37288). The assay can be described thus: Vasopressin V1a receptor binding assay. The conditions noted are these: selectivity quotient, human V1a vs human V1b receptor. On the procedure:
The test substances were dissolved in a concentration of 5 mM M in DMSO. Further dilution of these DMSO solutions took place as described for V1b.
The membrane pellet was again homogenized in a High-Pressure-Homogenizer, Polytec 50K at 1500 PSI (Heinemann, Germany) and subsequently taken up in 50 mM Tris-HCl, pH 7.4, homogenized and stored in aliquots frozen in liquid nitrogen at −190° C.
as §1
Duplicate determinations were carried out.
After incubation (60 minutes at room temperature), the samples were processed as described for V1b.
as §2

Sequence of human vasopressin V1a receptor (P37288 whole entry): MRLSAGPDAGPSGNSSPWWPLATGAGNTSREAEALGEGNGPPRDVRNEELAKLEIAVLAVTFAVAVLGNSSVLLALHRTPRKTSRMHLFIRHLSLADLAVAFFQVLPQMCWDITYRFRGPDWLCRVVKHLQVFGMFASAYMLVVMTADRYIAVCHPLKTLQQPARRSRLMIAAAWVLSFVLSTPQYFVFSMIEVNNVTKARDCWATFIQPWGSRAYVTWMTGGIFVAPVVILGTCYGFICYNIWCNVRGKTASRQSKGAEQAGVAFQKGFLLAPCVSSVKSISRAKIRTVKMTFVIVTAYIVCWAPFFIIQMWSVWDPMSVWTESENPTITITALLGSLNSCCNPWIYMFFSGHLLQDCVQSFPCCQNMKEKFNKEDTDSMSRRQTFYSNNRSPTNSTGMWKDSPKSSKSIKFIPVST
Sequence of human vasopressin V1b receptor (P47901 whole entry): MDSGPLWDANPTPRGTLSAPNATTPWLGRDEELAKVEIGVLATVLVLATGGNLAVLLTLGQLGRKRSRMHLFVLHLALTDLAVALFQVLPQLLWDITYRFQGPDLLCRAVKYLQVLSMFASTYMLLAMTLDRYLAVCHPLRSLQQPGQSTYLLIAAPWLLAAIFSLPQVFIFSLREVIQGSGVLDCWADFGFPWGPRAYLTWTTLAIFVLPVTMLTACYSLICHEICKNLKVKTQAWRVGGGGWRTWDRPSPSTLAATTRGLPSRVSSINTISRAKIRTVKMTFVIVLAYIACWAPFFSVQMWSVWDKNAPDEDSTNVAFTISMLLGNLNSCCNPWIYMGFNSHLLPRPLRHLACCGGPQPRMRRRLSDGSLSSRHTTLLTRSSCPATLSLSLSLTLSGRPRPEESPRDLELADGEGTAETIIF

The term Ki denotes the dissociation constant of the complex between target and ligand, obtained from inhibition or displacement. A higher Ki goes with lower affinity. Turning to `CCOc1ccc(OC)cc1C1(N2CC3(CN(C4CCN(C)CC4)C3)C2)C(=O)N(S(=O)(=O)c2ccc(OC)cn2)c2ccc(C#N)cc21` (single isomer, unassigned; (-)) [Example 1B, (−)-3-(2-ethoxy-5-methoxy-phenyl)-1-[(5-methoxy-2-pyridyl)sulfonyl]-3-[2-(1-methyl-4-piperidyl)-2,6-diazaspiro[3.3]heptan-6-yl]-2-oxo-indoline-5-carbonitrile], in assay [1], the inhibition constant (Ki) fell in the range of 10 to 100 nM. In addition, the “Ki(h-V1a)/ Ki(h-V1b)” value in assay [2] is “+++ (>75)”.
The compound `CCOc1ccc(OC)cc1[C@]1(N2CC3(CN(C4CCN(C)CC4)C3)C2)C(=O)N(S(=O)(=O)c2ccc(OC)nc2)c2ccc(C#N)cc21` [Example 31, (3S)-3-(2-ethoxy-5-methoxy-phenyl)-1-[(6-methoxy-3-pyridyl)sulfonyl]-3-[2-(1-methyl-4-piperidyl)-2,6-diazaspiro[3.3]heptan-6-yl]-2-oxo-indoline-5-carbonitrile] registered a Ki in assay [1] of 1 to 10 nM. Further, the “Ki(h-V1a)/ Ki(h-V1b)” value in assay [2] is recorded as “+ (10-<25)”.
With `CCOc1ccc(OC)cc1[C@]1(N2CC3(CN(C4CCN(C)CC4)C3)C2)C(=O)N(S(=O)(=O)c2ccccn2)c2ccc(C#N)cc21` [Example 33, (3S)-3-(2-ethoxy-5-methoxy-phenyl)-3-[2-(1-methyl-4-piperidyl)-2,6-diazaspiro[3.3]heptan-6-yl]-2-oxo-1-(2-pyridylsulfonyl)indoline-5-carbonitrile], the inhibition constant (Ki) in assay [1] lay within 1 to 10 nM. Further, the “Ki(h-V1a)/ Ki(h-V1b)” value in assay [2] is listed as “+++ (>75)”.
Taken in the same sequence, the figures for `CCOc1ccc(OC)cc1[C@]1(N2CC3(CN(C4CCN(C)CC4)C3)C2)C(=O)N(S(=O)(=O)c2ccc(Cl)cn2)c2ccc(C#N)cc21` [Example 34, (3S)-1-[(5-chloro-2-pyridyl)sulfonyl]-3-(2-ethoxy-5-methoxy-phenyl)-3-[2-(1-methyl-4-piperidyl)-2,6-diazaspiro[3.3]heptan-6-yl]-2-oxo-indoline-5-carbonitrile] were less than 1 nM and “+++ (>75)”.
